From PMC9501445 (2022)

Tested on: 22GT (DNA, G4) GGGTTAGGGTTAGGGTTAGGGT
Experiment: ITC, global fit of coupled folding/binding model
Conditions: 100 mM K+; 1 mM cacodylate, 0.02 mM EDTA, pH 6.9, 3% DMSO, 25 °C; site 1 of 2 (intermediate I)

C[n+]1cc(NC(=O)c2cccc(C(=O)Nc3cc4ccccc4[n+](C)c3)n2)cc2ccccc21
ΔG°: -9.6 ± 0.6 kcal/mol
